The text below walks through data of patent publication US8802638B1, “Flavonoid treatment of glycogen synthase kinase-based disease” (University of South Florida, priority 2007, dated 2014).

The subject of one data set is PS1. As to the kind of experiment: Western blot of PS1 C-terminal fragment phosphorylation in SweAPP N2a cells. Type of data set: cell-based, murine. The procedure:
(§1) Cultured cells or mouse brain were lysed in ice-cold lysis buffer described above, and an aliquot corresponding to 50 μg of total protein was electrophoretically separated using 12% Tris-HCl or 16.5% Tris-tricine gels. Electrophoresed proteins were then transferred to PVDF membranes, washed in dH2O, and blocked for 1 hr at ambient temperature in Tris-buffered saline (TBS; Bio-Rad) containing 5% (w/v) non-fat dry milk. After blocking, membranes were hybridized for 1 hr at ambient temperature with various primary antibodies. Membranes were then washed 3× for 5 min each in dH2O and incubated for 1 hr at ambient temperature with the appropriate HRP-conjugated secondary antibody (1:1,000). All antibodies were diluted in TBS containing 5% (w/v) of non-fat dry milk. Blots were developed using the luminol reagent (Pierce Biotechnology). Densitometric analysis was done as previously described using a FluorS Multiimager with Quantity One™ software. Immunoprecipitation was performed for detection of sAPP-α, sAPP-β and Aβ by incubating 200 μg of total protein of each sample with various sequential combinations of 6E10 (1:100) and/or 22C11 (1:100) antibodies overnight with gentle rocking at 4° C., and 10 μL of 50% protein A-Sepharose beads were then added to the sample (1:10; Sigma) prior to gentle rocking for an additional 4 hrs at 4° C. Following washes with 1× cell lysis buffer, samples were subjected to Western blot as described above. Antibodies used for Western blot included the APP-carboxyl-terminal antibody (1:50)), amino-terminal APP antibody (clone 22C11), or 6E10 (1:1,000), or actin antibody (1:1,500; as an internal reference control). γ-secretase activity was quantified in cell lysates using available kits (R&D Systems, Minneapolis, Minn.), based on secretase-specific peptides conjugated to fluorogenic reporter molecules.
The two bands of highest molecular weight, approximately 20 kD and 18 kD in size, represent phosphorylated PS1 CTFs with a smaller 16 kD band representing the more common CTF product indicative of PS1 endoproteolytic cleavage.
To confirm that the 20 kD and 18 kD bands were phosphorylated PS1 isoforms, SweAPP N2a cells were treated with luteolin (20 μM) prior to lysis and cell lysates incubated with calf intestine alkaline phosphatase (CIAP) (Fermentas, Hanover, Md.), to dephosphorylate any potential phosphorylated proteins, to eliminate skewing of electrophorectic mobilities. Following 30 minutes of incubation, the 20 kD band is not evident in the CIAP treated lysates, seen in FIGS. 21(A) through 22, and the 18 kD band reduced while endogenous CTF, 16 kD, appears to accumulate. When compared to lysates incubated with only reaction buffer, phosphorylated residues decrease in a time dependent manner, shown by the 20 kD CTF:16 kD CTF. […] Luteolin affects PS1 phosphorylation and may indicate a means by which γ-secretase activity may be regulated.
To determine if this phenomenon was specifically attributable to luteolin treatment or more generally in regards to GSK-3 inhibition, SweAPP N2a cells were treated with a range of doses of the GSK-3 inhibitor SB-415286 (BIOMOL®, Plymouth Meeting, Pa.). […] FIG. 24(B). GSK-3α and β was successfully knocked-down (>70%, data not shown) with siRNA in SweAPP N2a cells, substantiating the role of GSK-3α in this luteolin-mediated PS1 processing. […]
Background: Immunoblotting shows a protein as a band on a membrane.

The test system of a further data set is GSK-3α/β. Put plainly: Western blot of phosphorylated GSK-3α/β forms in SweAPP N2a cells. Type of data set: cell-based, murine. The note with it: SweAPP N2a cells co-treated with luteolin or SB-415286 and GF109203X; data not shown. The procedure:
(§2) Cultured cells or mouse brain were lysed in ice-cold lysis buffer described above, and an aliquot corresponding to 50 μg of total protein was electrophoretically separated using 12% Tris-HCl or 16.5% Tris-tricine gels. Electrophoresed proteins were then transferred to PVDF membranes, washed in dH2O, and blocked for 1 hr at ambient temperature in Tris-buffered saline (TBS; Bio-Rad) containing 5% (w/v) non-fat dry milk. After blocking, membranes were hybridized for 1 hr at ambient temperature with various primary antibodies. Membranes were then washed 3× for 5 min each in dH2O and incubated for 1 hr at ambient temperature with the appropriate HRP-conjugated secondary antibody (1:1,000). Antibodies were obtained against the amino-terminus and carboxyl-terminus of PS1 (Chemicon, Temecula, Calif.), amino-terminus and carboxyl-terminus of APP (22C11), actin (Roche, Basel, Switzerland), Aβ (6E10, 48G) (Signet Laboratories, Dedham, Mass.), phosphor-GSK3α (ser^21, clone BK202) (Upstate, Lake Placid, N.Y.), phospho-GSK3α/β (pTyr^279/216) (Sigma), phospho-GSK-3β (Ser^9) (Sigma) and total GSK-3α/β (Sigma). All antibodies were diluted in TBS containing 5% (w/v) of non-fat dry milk. Blots were developed using the luminol reagent (Pierce Biotechnology). Densitometric analysis was done as previously described using a FluorS Multiimager with Quantity One™ software (39). […] Antibodies used for Western blot included the APP-carboxyl-terminal antibody (1:50)), amino-terminal APP antibody (clone 22C11), or 6E10 (1:1,000), or actin antibody (1:1,500; as an internal reference control). γ-secretase activity was quantified in cell lysates using available kits based on secretase-specific peptides conjugated to fluorogenic reporter molecules.
The effect luteolin had on a variety of proteins related to and/or required for proper functioning of the γ-secretase complex was evaluated to establish the mechanism whereby luteolin modulates γ-secretase activity and subsequent Aβ generation. […]

The test system of a further data set is TACE, ADAM10, sAPPα. As to the kind of experiment: non-amyloidogenic APP processing (TACE, ADAM10 maturation, sAPPα release). Type of data set: cell-based. The note with it: data not shown. The source says:
The presence of phosphorylated PS1 CTFs corresponds with reduction of Aβ generation and accumulation of the β-CTF of APP, as was observed following luteolin treatment. The accumulation β-CTFs following luteolin treatment is a fraction of β-CTF seen after direct γ-secretase inhibitor treatment (data not shown). In view of this finding, selective GSK-3 inactivation is a less toxic, more regulative, substrate-specific mode of γ-secretase inhibition. Earlier studies routinely employed phorbol-12,13-dibutyrate (PDBu), a potent PKC activator, as their phosphorylating agent. Thus, luteolin was tested for similar PKC activation, rather than a GSK-3 inhibitor. […] Additionally, there are no indications GSK-3α inhibition affects non-amyloidogenic processing of APP, since luteolin, SB-415286, and GSK-3α RNAi treatment have no effect on the maturation of TACE, ADAM10, or sAPPα release (data not shown), which are all strongly associated with PKC activation.

Another data set relates to PS1-APP association. Put plainly: PS1-APP association, immunoprecipitation/Western blot in SweAPP N2a cells. Type of data set: cell-based, murine. The note with it: 20 μM for 4 hrs or siRNA transfection. How it is done: as §1
Cell lysates of luteolin-treated SweAPP N2a cells were immunoprecipitated by PS1 antibody and probed for APP to clarify how phospho-PS1 CTF isoforms may regulate γ-secretase activity, seen in FIGS. 26(A) through 27(B). As illustrated in FIGS. 26(A) and (B), the APP-PS1 association is disrupted by luteolin, SB-415286 treatment, and GSK-3α siRNA. […] Thus, GSK-3α or, more specifically, downstream phosphorylation of the PS1 CTF plays an essential role in regulating the association of γ-secretase complex with its APP substrate.

In another data set the test system is SweAPP N2a cells. Put plainly: APP proteolysis (Aβ ELISA, IP, APP CTF Western blot) in SweAPP N2a cells. Type of data set: cell-based, murine. The note with it: result in words; ELISA/IP/Western blot. The procedure: Cultured cells or mouse brain were lysed in ice-cold lysis buffer described above, and an aliquot corresponding to 50 μg of total protein was electrophoretically separated using 12% Tris-HCl or 16.5% Tris-tricine gels. Electrophoresed proteins were then transferred to PVDF membranes, washed in dH2O, and blocked for 1 hr at ambient temperature in Tris-buffered saline (TBS; Bio-Rad) containing 5% (w/v) non-fat dry milk. After blocking, membranes were hybridized for 1 hr at ambient temperature with various primary antibodies. Membranes were then washed 3× for 5 min each in dH2O and incubated for 1 hr at ambient temperature with the appropriate HRP-conjugated secondary antibody (1:1,000). Antibodies were obtained against the amino-terminus and carboxyl-terminus of PS1 (Chemicon, Temecula, Calif.), amino-terminus and carboxyl-terminus of APP (22C11), actin (Roche, Basel, Switzerland), Aβ (6E10, 48G) (Signet Laboratories, Dedham, Mass.), phosphor-GSK3α (ser^21, clone BK202) (Upstate, Lake Placid, N.Y.), phospho-GSK3α/β (pTyr^279/216) (Sigma), phospho-GSK-3β (Ser^9) (Sigma) and total GSK-3α/β (Sigma). All antibodies were diluted in TBS containing 5% (w/v) of non-fat dry milk. Blots were developed using the luminol reagent (Pierce Biotechnology). Densitometric analysis was done as previously described using a FluorS Multiimager with Quantity One™ software (39). Immunoprecipitation was performed for detection of sAPP-α, sAPP-β and Aβ by incubating 200 μg of total protein of each sample with various sequential combinations of 6E10 (1:100) and/or 22C11 (1:100) antibodies overnight with gentle rocking at 4° C., and 10 μL of 50% protein A-Sepharose beads were then added to the sample (1:10; Sigma) prior to gentle rocking for an additional 4 hrs at 4° C. Following washes with 1× cell lysis buffer, samples were subjected to Western blot as described above. Antibodies used for Western blot included the APP-carboxyl-terminal antibody (1:50)), amino-terminal APP antibody (clone 22C11), or 6E10 (1:1,000), or actin antibody (1:1,500; as an internal reference control). γ-secretase activity was quantified in cell lysates using available kits based on secretase-specific peptides conjugated to fluorogenic reporter molecules.
SweAPP N2a cells and primary neuronal cells derived from Tg2576 mice were treated with varying doses of luteolin to examine luteolin's effect on APP proteolysis. Cellular extracts were collected and analyzed using immunoprecipitation (IP), Western blot, and ELISA. […] See FIGS. 1 through 2(B) and 5 through 6(B). SweAPP N2a and primary Tg2576-derived neuronal cells CTF profiles were analyzed following luteolin treatment to determine at which level luteolin impacts amyloid processing.
On the technique in general: ELISA stands for enzyme-linked immunosorbent assay.

The target in another data set is T1, γ-secretase (Mus musculus, UniProt P49769).
T1 construct: endogenous in cells; host or cells: SweAPP N2a cells (lysates of treated cells)
Put plainly: fluorometric assay for γ-secretase cleavage activity in SweAPP N2a cell lysates. Type of data set: cell-based, murine. The note with it: relative to untreated control. How it is done: as §2, with “All antibodies were diluted in TBS containing 5% (w/v) of non-fat dry milk. Blots were developed using the luminol reagent (Pierce Biotechnology).” left out
Due to the implications on γ-secretase activity, luteolin's effect on SweAPP N2a cells was analyzed using a fluorometric assay for γ-cleavage.
Cultured cells or mouse brain were lysed in ice-cold lysis buffer described above, and an aliquot corresponding to 50 μg of total protein was electrophoretically separated using 12% Tris-HCl or 16.5% Tris-tricine gels. […] Densitometric analysis was done as previously described using a FluorS Multiimager with Quantity One™ software. […]

For data set [1] the following is noted: diosmetin formed from diosmin by intestinal flora; cited from earlier work.
The test system of another data set is Tg2576 mice. The following applies: 0.05% diosmin diet for 6 months.

Bounds are passed on as bounds.

In the case of `CN(C)CCCn1cc(C2=C(c3c[nH]c4ccccc34)C(=O)NC2=O)c2ccccc21` [GF109203X, reference compound], the “PS1 CTF phosphorylation (phospho-PS1 CTF to PS1 CTF ratio)” value in the data set on PS1 is “Minor decreases in 20 kD and 18 kD phospho-PS1 CTF isoforms”. Also, the “GSK-3 inhibition on co-treatment with PKC inhibitor” value with GSK-3α/β is recorded as “no effect on GSK-3 inhibition”.
For the compound `O=C1NC(=O)C(c2ccccc2[N+](=O)[O-])=C1Nc1ccc(O)c(Cl)c1` [SB-415286, reference compound], the “maturation of TACE, ADAM10, or sAPPα release” value with TACE, ADAM10, sAPPα is “no effect”. In the data set with PS1, the “PS1 CTF phosphorylation (phospho-PS1 CTF to PS1 CTF ratio)” value is listed as “Alterations in phospho-PS1 CTF:PS1 CTF ratios were similar to prior experiments”. For the same compound, the “ratio of APP to actin (full-length APP levels)” value with PS1-APP association (6E10 Western blot of lysates) was “no significant changes”. The APP-PS1 association entry in the data set on PS1-APP association (IP with anti-PS1 CTF, 6E10 blot) is “disrupted”. Also, the “Aβ1-40, 42 production” value in the data set with SweAPP N2a cells is recorded as “congruent decreases in Aβ1-40, 42 generation”.
Regarding `O=c1cc(-c2ccc(O)cc2)oc2cc(O)cc(O)c12` [apigenin, reference compound], the γ-secretase cleavage activity result at γ-secretase is “results were not similar to luteolin”. In addition, the “Aβ1-40, 42 production” value with SweAPP N2a cells was “did not reduce Aβ1-40, 42 production to the same level as luteolin, diosmetin, and diosmin”.
`COc1ccc(-c2cc(=O)c3c(O)cc(O)cc3o2)cc1O` [diosmetin]: the plasma half-life in data set [1] was greater than 26 h. In addition, in the data set on PS1, the “PS1 CTF phosphorylation (phospho-PS1 CTF to PS1 CTF ratio)” value is given as “just as efficacious as luteolin”. Also, on γ-secretase, the γ-secretase cleavage activity entry is recorded as “just as efficacious as luteolin”.
For the compound `COc1ccc(-c2cc(=O)c3c(O)cc(O[C@@H]4O[C@H](CO[C@@H]5O[C@@H](C)[C@H](O)[C@@H](O)[C@H]5O)[C@@H](O)[C@H](O)[C@H]4O)cc3o2)cc1O` [diosmin], the “Aβ plaque burden (4G8 stained sections, image analysis)” value in the data set on Tg2576 mice is reported as “significantly reduced throughout the brain”.
